# Measured values published in patent US10526311B2 (ASTEX THERAPEUTICS LIMITED, priority 2015, dated 2020).
# Like-named read-outs stand apart in the source and are kept apart here.
# Tests used:
# [1] = target: MDM2-p53 interaction (in vitro translated MDM2, biotinylated IP3 peptide) (Homo sapiens, UniProt Q00987); assay: MDM2-p53 interaction 96-well plate binding assay (ELISA); conditions: for inhibition at 0.03 µM: @ 0.030 μM
# SJSA-1 = assay: Protocol B: SJSA-1 CellTiter-Glo cell viability
# [2] = @ 0.0010 μM, read-out: MDM2 % @ concentration
# [3] = Homo sapiens, SJSA-1, 72 h, read-out: SJSA1 IC50 (μM) (Protocol B), SJSA-1, Protocol B (CellTiter-Glo), 72 hrs
# [4] = @ 0.10 μM, read-out: MDM2 % @ concentration
# [5] = read-out: MDM2 % @ concentration
# [6] = @ 0.30 μM, read-out: MDM2 % @ concentration
# [7] = read-out: SJSA1 IC50 (Protocol B), SJSA-1 cells, CellTiter-Glo, 72 hrs
# Chain of MDM2-p53 interaction (in vitro translated MDM2, biotinylated IP3 peptide) (Q00987 whole entry): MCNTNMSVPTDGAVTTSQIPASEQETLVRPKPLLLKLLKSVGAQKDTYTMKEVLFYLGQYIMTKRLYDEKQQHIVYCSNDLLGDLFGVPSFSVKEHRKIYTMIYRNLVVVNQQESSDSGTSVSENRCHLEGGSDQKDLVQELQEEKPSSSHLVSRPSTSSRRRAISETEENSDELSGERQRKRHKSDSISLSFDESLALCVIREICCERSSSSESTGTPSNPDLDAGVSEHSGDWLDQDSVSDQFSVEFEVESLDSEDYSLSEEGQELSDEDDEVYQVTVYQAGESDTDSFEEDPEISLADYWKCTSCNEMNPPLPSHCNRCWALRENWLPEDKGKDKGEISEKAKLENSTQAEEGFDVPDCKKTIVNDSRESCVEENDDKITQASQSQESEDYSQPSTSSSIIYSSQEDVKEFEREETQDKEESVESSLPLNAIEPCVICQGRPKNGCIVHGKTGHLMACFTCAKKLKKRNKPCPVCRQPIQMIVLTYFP
structure (smiles),measurement,setting,value
"CN1CCC(C(C)(O)c2cc(F)c3c(c2)C(=O)N(Cc2ccc(Cl)cn2)[C@@]3(OCC2(CO)CC2)c2ccc(Cl)cc2)CC1 (single isomer, unassigned) [Example 555]",inhibition at 0.001 µM,[1]; [2],55%
same,IC50,SJSA-1; [3],0.079 µM
"Cn1cc(C(C)(O)c2cc(F)c3c(c2)C(=O)N(Cc2ncc(F)cc2F)[C@@]3(OCC2(O)CC2)c2ccc(Cl)cc2)cn1 (single isomer, unassigned) [Example 351]",inhibition at 0.1 µM,[1]; [4],25%
"CCC(O)(c1cc(F)c2c(c1)C(=O)N(Cc1ccc(C#N)cn1)[C@@]2(O[C@H]1C[C@@H](O)C1)c1ccc(Cl)cc1)[C@H]1CC[C@H](O)CC1 (single isomer, unassigned) [Example 520]",inhibition at 0.03 µM,[1]; [5],32%
same,IC50,"SJSA-1; read-out: SJSA1 IC50 (μM) (Protocol B), SJSA-1, Protocol B (CellTiter-Glo), 72 hrs",3.9 µM
"CCC(O)(c1cc(F)c2c(c1)C(=O)N(Cc1ccc(C#N)cn1)[C@@]2(OCCOC)c1ccc(Cl)cc1)c1cn(C)cn1 (single isomer, unassigned) [Example 429]",inhibition at 0.1 µM,[1]; [4],65%
"CO[C@]1(c2ccc(Cl)cc2)c2ccc(C(C)(O)C(=O)NCCN(C)C)cc2C(=O)N1Cc1ccc(Cl)cn1 (stereo partly drawn) [Example 150, 2-[(1R)-1-(4-Chlorophenyl)-2-[(5-chloropyridin-2-yl)methyl]-1-methoxy-3-oxo-2,3-dihydro-1H-isoindol-5-yl]-N-[2-(dimethylamino)ethyl]-2-hydroxypropanamide]",inhibition at 0.1 µM,[1]; [4],49%
"CCC(O)(c1cc(F)c2c(c1)C(=O)N(Cc1ncc(C#N)cn1)[C@@]2(OCC1(C#N)CC1)c1ccc(Cl)cc1)c1cn(C)cn1 (single isomer, unassigned) [Example 463]",inhibition at 0.1 µM,[1]; [4],73%
"Cn1cc(C(C)(O)c2cc(F)c3c(c2)C(=O)N(Cc2ncc(F)cc2F)[C@@]3(OCC2(O)CC2)c2ccc(Cl)cc2)cn1 (single isomer, unassigned) [Example 350]",inhibition at 0.03 µM,[1]; [5],54%
"COc1ccc(CN2C(=O)c3cc(C(C)(O)c4cnn(C)c4)cc(F)c3[C@]2(OCC2(O)CC2)c2ccc(Cl)cc2)nc1 (stereo partly drawn) [Example 347, (3R)-3-(4-chlorophenyl)-4-fluoro-6-[1-hydroxy-1-(1-methyl-1H-pyrazol-4-yl)ethyl]-3-[(1-hydroxycyclopropyl)methoxy]-2-[(5-methoxypyridin-2-yl)methyl]-2,3-dihydro-1H-isoindol-1-one]",inhibition at 0.1 µM,[1]; [4],63%
"COc1ccc(CN2C(=O)c3cc(C(C)(O)c4cnn(C)c4)cc(F)c3[C@]2(OCC2(O)CC2)c2ccc(Cl)cc2)nc1 (stereo partly drawn) [Example 228, (3R)-3-(4-chlorophenyl)-4-fluoro-6-[1-hydroxy-1-(1-methyl-1H-pyrazol-4-yl)ethyl]-3-[(1-hydroxycyclopropyl)methoxy]-2-[(5-methoxypyridin-2-yl)methyl]-2,3-dihydro-1H-isoindol-1-one]",inhibition at 0.01 µM,"[1]; @ 0.010 μM, read-out: MDM2 % @ concentration",61%
"CO[C@]1(c2ccc(Cl)cc2)c2ccc(C(C)(O)C(=O)NCCN(C)C)cc2C(=O)N1Cc1ccc(Cl)cn1 (stereo partly drawn) [Example 149, 2-[(1R)-1-(4-Chlorophenyl)-2-[(5-chloropyridin-2-yl)methyl]-1-methoxy-3-oxo-2,3-dihydro-1H-isoindol-5-yl]-N-[2-(dimethylamino)ethyl]-2-hydroxypropanamide]",inhibition at 1 µM,"[1]; @ 1.0 μM, read-out: MDM2 % @ concentration",53%
"CO[C@]1(c2ccc(Cl)cc2)c2ccc(C(C)(O)CN3CCNC3=O)cc2C(=O)N1Cc1ccc(Cl)cn1 (single isomer, unassigned) [Example 157]",inhibition at 0.3 µM,[1]; [6],39%
"CC(C)(O)c1cc(F)c2c(c1)C(=O)N([C@H](c1ccc(Cl)cn1)C(O)CO)[C@@]2(OCC1(O)CC1)c1ccc(Cl)cc1 (stereo partly drawn) [Example 331, (3R)-3-(4-Chlorophenyl)-2-[(1R)-1-(5-chloropyridin-2-yl)-2,3-dihydroxypropyl]-4-fluoro-3-[(1-hydroxycyclopropyl)methoxy]-6-(2-hydroxypropan-2-yl)-2,3-dihydro-1H-isoindol-1-one]",inhibition at 0.03 µM,[1]; [5],49%
"CO[C@]1(c2ccc(Cl)cc2)c2ccc(C(C)(O)CN3CCOCC3=O)cc2C(=O)N1Cc1ccc(Cl)cn1 (single isomer, unassigned) [Example 327]",inhibition at 0.3 µM,[1]; [6],42%
"CO[C@]1(c2ccc(Cl)cc2)c2ccc(C(C)(O)CN3CC(=O)NC3=O)cc2C(=O)N1Cc1ccc(Cl)cn1 (single isomer, unassigned) [Example 330]",MDM2 % @ concentration,[1]; @ 0.30 μM,36% @ 0.30
"CCC(O)(c1cc(F)c2c(c1)C(=O)N(Cc1ncc(Cl)cc1O)[C@@]2(O[C@H]1C[C@@H](O)C1)c1ccc(Cl)cc1)c1cn(C)cn1 (single isomer, unassigned) [Example 488]",inhibition at 0.1 µM,[1]; [4],56%
"C[C@H](c1ccc(Cl)cn1)N1C(=O)c2cc(C(C)(C)O)cc(F)c2[C@]1(OCC1(C(N)=O)CC1)c1ccc(Cl)cc1 [Example 71, 1-({[(1R)-1-(4-chlorophenyl)-2-[(1R)-1-(5-chloropyridin-2-yl)ethyl]-7-fluoro-5-(2-hydroxypropan-2-yl)-3-oxo-2,3-dihydro-1H-isoindol-1-yl]oxy}methyl)cyclopropane-1-carboxamide]",IC50,[1],0.082 µM
"CCC(O)(c1cc(F)c2c(c1)C(=O)N(Cc1ccc(C#N)cn1)[C@@]2(O[C@H]1CCOC1)c1ccc(Cl)cc1)c1ccn(C)c(=O)c1 (single isomer, unassigned) [Example 374]",IC50,SJSA-1; [3],0.85 µM
"CO[C@]1(c2ccc(Cl)cc2)c2c(F)cc(C(C)(O)c3nccs3)cc2C(=O)N1Cc1ccc(Cl)cn1 (stereo partly drawn) [Example 166, (3R)-3-(4-Chlorophenyl)-2-[(5-chloropyridin-2-yl)methyl]-4-fluoro-6-[1-hydroxy-1-(1,3-thiazol-2-yl)ethyl]-3-methoxy-2,3-dihydro-1H-isoindol-1-one]",IC50,SJSA-1; [7],3.8 µM
"CC(O)(c1cc(F)c2c(c1)C(=O)N(Cc1ccc(Cl)cn1)[C@@]2(OCCO)c1ccc(Cl)cc1)C1CCS(=O)(=O)CC1 (single isomer, unassigned) [Example 314]",SJSA1 (Protocol B) % at concentration,SJSA-1; at 10 μM,66% at 10
"CO[C@]1(c2ccc(Cl)cc2)c2c(F)cc(C(C)(O)c3ncc[nH]3)cc2C(=O)N1Cc1ccc(Cl)cn1 (stereo partly drawn) [Example 164, (3R)-3-(4-chlorophenyl)-2-[(5-chloropyridin-2-yl)methyl]-4-fluoro-6-[1-hydroxy-1-(1H-imidazol-2-yl)ethyl]-3-methoxy-2,3-dihydro-1H-isoindol-1-one]",IC50,SJSA-1; [7],2.2 µM
"CCC(O)(c1cc(F)c2c(c1)C(=O)N(Cc1ccc(C#N)cn1)[C@@]2(OCC1(CO)CC1)c1ccc(Cl)cc1)c1cn(C)cn1 (stereo partly drawn) [Example 337, 6-{[(1R)-1-(4-chlorophenyl)-7-fluoro-5-[1-hydroxy-1-(1-methyl-1H-imidazol-4-yl)propyl]-1-{[1-(hydroxymethyl)cyclopropyl]methoxy}-3-oxo-2,3-dihydro-1H-isoindol-2-yl]methyl}pyridine-3-carbonitrile]",IC50,SJSA-1; [3],0.058 µM
"Cn1cc(C(C)(O)c2cc(F)c3c(c2)C(=O)N(Cc2ncc(Cl)cn2)[C@@]3(OCC2(CO)CC2)c2ccc(Cl)cc2)cn1 (stereo partly drawn) [Example 349, (3R)-3-(4-chlorophenyl)-2-[(5-chloropyrimidin-2-yl)methyl]-4-fluoro-6-[1-hydroxy-1-(1-methyl-1H-pyrazol-4-yl)ethyl]-3-{[1-(hydroxymethyl)cyclopropyl]methoxy}-2,3-dihydro-1H-isoindol-1-one]",IC50,"SJSA-1; Homo sapiens, SJSA-1, 72 h, read-out: SJSA1 IC50 (Protocol B), SJSA-1 cells, CellTiter-Glo, 72 hrs",0.028 µM
"CO[C@]1(c2ccc(Cl)cc2)c2ccc(C(C)(O)CN3CCNC3=O)cc2C(=O)N1Cc1ccc(Cl)cn1 (single isomer, unassigned) [Example 158]",inhibition at 0.1 µM,[1]; [4],57%
"CO[C@]1(c2ccc(Cl)cc2)c2c(F)cc(C(C)(O)c3cnn(C4CN(C(=O)OC(C)(C)C)C4)c3)cc2C(=O)N1Cc1ccc(Cl)cn1 (single isomer, unassigned) [Example 457]",inhibition at 0.3 µM,[1]; [6],53%
"CCC(O)(c1cc(F)c2c(c1)C(=O)N(Cc1ccc(C#N)cn1)[C@@]2(O[C@H]1CCOC1)c1ccc(Cl)cc1)C1(F)CCOCC1 (single isomer, unassigned) [Example 445]",MDM2 % @ concentration,[1]; @ 0.0010 μM,43% @ 0.0010
same,inhibition at 0.1 µM,"[1]; read-out: MDM2 % @ concentration, @ 0.10 μM",56%
"CCC(O)(c1cc(F)c2c(c1)C(=O)N(Cc1ncc(C#N)cn1)[C@@]2(O[C@H]1CCOC1)c1ccc(Cl)cc1)C1(F)CCNCC1 (single isomer, unassigned) [Example 547]",IC50,SJSA-1; [3],0.96 µM
"C[C@@H](c1ccc(Cl)cn1)N1C(=O)c2cc(C(C)(C)O)cc(F)c2[C@]1(OCC1(C(N)=O)CC1)c1ccc(Cl)cc1 [Example 70, 1-({[(1R)-1-(4-chlorophenyl)-2-[(1S)-1-(5-chloropyridin-2-yl)ethyl]-7-fluoro-5-(2-hydroxypropan-2-yl)-3-oxo-2,3-dihydro-1H-isoindol-1-yl]oxy}methyl)cyclopropane-1-carboxamide]",IC50,[1],0.0032 µM
"CCCC(O)(c1cc(F)c2c(c1)C(=O)N(Cc1ccc(C#N)cn1)[C@@]2(O[C@H]1CCOC1)c1ccc(Cl)cc1)c1cn(C)cn1 (single isomer, unassigned) [Example 473]",inhibition at 0.1 µM,[1]; [4],44%
"CO[C@]1(c2ccc(Cl)cc2)c2c(F)cc(C(C)(O)C3CCN(C(=O)CO)CC3)cc2C(=O)N1Cc1ccc(Cl)cn1 (single isomer, unassigned) [Example 296]",inhibition at 0.001 µM,[1]; [2],62%
"CCC(O)(c1cc(F)c2c(c1)C(=O)N(Cc1ccc(C#N)cn1)[C@@]2(O[C@H]1CCOC1)c1ccc(Cl)cc1)c1cnn(C)c1 (single isomer, unassigned) [Example 359]",inhibition at 0.1 µM,[1]; [4],50%
"CCC(O)(c1cc(F)c2c(c1)C(=O)N(Cc1ccc(C#N)cn1)[C@@]2(O[C@H]1CCOC1)c1ccc(Cl)cc1)c1cnn(C)c1 (single isomer, unassigned) [Example 358]",inhibition at 0.001 µM,[1]; [2],74%
